{"source": "patent US7250397B2", "about": "“Antiarrhythmic peptides” (Zealand Pharma A/S, priority 2000, dated 2007)", "key": {"ROS 17/2.8 cells": {"system": "ROS 17/2.8 cells", "experiment": "Lucifer Yellow dye transfer in ROS 17/2.8 cells", "type": "cell-based, rat", "settings": "after 48 hours in 3-6% O2 (9 cells before)", "method": "ROS 17/2.8 cells: Cells were cultured in 100 mm dishes at 37° C. with 5% CO2 and medium change every 2-3 days. ROS medium (all reagents obtained from Life Technologies) MEM (Cat.No. 31095) supplemented with 10% heat-inactivated calf serum (Cat.No. 16170), 1% NEAA (Cat.No. 11140), 1% Sodium Pyruvate (Cat.No. 11360), 1% L-Glutamine (Cat.No. 25030) and 0.1% Penicillin/Streptomycin (Cat.No. 15140). For video imaging experiments, cells were plated on coverslips at 2-3×10^5 cells/coverslip and cultured for 2-3 days before use.\nThe cells cultured on coverslips were placed in the microscope as described above. Microinjections were performed using the Eppendorf 5171 micromanipulator and the Eppendorf Transjector 5346 system. A micropipette was loaded with a 10 mM Lucifer Yellow (LY) solution (Sigma, Cat.No. L-0259). […] The excitation light for LY was 430 nm, and images were acquired as described above.\nSimilar experiments were performed with ROS cells. Basic coupling under physiological conditions in ROS cells was 12 cells (n=19). After 48 hours incubation in 3-6% O2, a reduction in dye transfer was seen to 9 cells (n=27)."}, "[1]": {"system": "calcium-induced arrythmias", "experiment": "Calcium-induced arrhythmia model in mice", "type": "in vivo", "settings": "mouse, in vivo, iv", "method": "The antiarrhythmic effects of compounds of this invention were tested in an in vivo model of calcium-induced arrythmias according to the model of Lynch et al.^[37]. […]. Commercial solutions of hypnorm and midazolam were diluted 1:1 in distilled water and one part diluted Hypnorm® is mixed with one part diluted midazolam.\nThe anaesthesia was induced by s.c. administration in a dose of 0.05-0.075 μl/10 gram mouse. An i.v cannula was inserted into the tail vein. The lead II ECG signal was recorded continuously by positioning of a stainless steel ECG electrodes on the right forelimb and on the left hind limb. The ground electrode was placed on the right hind limb. The signal was amplified (x 5.000-10.000) and filtered (0.1-150 Hz) via a Hugo Sachs Electronic model 689 ECG module. The analogue signal was digitised via a 12 bit data acquisition board (Data Translation model DT321) and sampled at 1000 Hz using the Notocord HEM 3.1 software for Windows NT. After a 10-min equilibration period, the test sample of drug was injected into the tail vein. Mice pre-treated with vehicle were tested as a measure of the control level in untreated animals. The injection volume was 100 μl in all experiments. Infusion of CaCl2 (30 mg/ml, 0.1 ml/min≈100 mg/kg/min (calciumchlorid-2-hydrat, Riedel-de Häen, Germany)) was started 3 min after i.v. administration of drug or vehicle. The time lag to onset of 2nd degree AV-block was determined as the time from the start of CaCl2 infusion until the first arrhythmic event occured. An event of 2nd degree AV-block was defined as intermittent failure of the AV conduction characterised by a P-wave without the concomitant QRS complex.\nResponses were expressed relative to the time until 2nd degree AV-block occurred in vehicle treated mice."}, "[2]": {"system": "ventricular reentry arrhythmias", "experiment": "Ventricular reentry arrhythmias in dogs after coronary artery occlusion", "type": "in vivo, dog", "settings": "i.v. bolus and infusion after CAO; from the lowest dose", "method": "Three dogs were studied in the anesthetized, open chest state to facilitate electrode placement for mapping. α-chloralose was given as a bolus (200 mg/kg) and then a constant infusion at 8 mg/kg/hr (dissolved in polyethylene glycol, MW=200). The femoral vein and artery was cannulated for administration of fluid and drugs and for measurement of ascending aortic pressure, respectively.\nThe sinus node was clamped and the atrial appendage was paced with a programmable stimulator with constant current outputs at two times diastolic threshold. Pacing rate was ≧200 b/min to control heart rates. […] Endocardial Effective Refractory Period (ERP) was measured by the standard extrastimulus technique. Late ventricular diastolic threshold was measured during each intervention; the pacing current was four times threshold.\nTest sites were chosen along the shaft of 16 pole needles (J. Kassell, Fayetteville, N.C.); each pole completely surrounds the needle shaft to prevent directionality of needle orientation from recording of adjacent Purkinje strands. Six bipolar electrograms (1 mm spacing) were recorded sequentially down the shaft of the needle by amplifying up to 1000 times, filtering from 3-1300 Hz and recording via oscilloscope during atrial pacing. Four intramural electrograms are recorded on each multipolar needle. […]"}}, "note": "“Also recorded” adds a separate entry of the source.", "data": [{"substance": "Ac-D-Tyr-D-Pro-D-4Hyp-Gly-D-Ala-Gly-NH2 [Compound 2]", "values": [{"measurement": "average dye transfer, number of cells", "setting": "ROS 17/2.8 cells", "value": 12, "unit": "cells"}, {"measurement": "In vivo activity", "setting": "[1]", "value": "+++ (key: +++: >60% increase in time until arrhythmia; ++: 30-50% increase in time until arrhythmia; +: 15-29% increase in time until arrhythmia; (+): ≦15% increase in time until arrythmia)"}, {"measurement": "inducibility of reentry ventricular tachycardia (VT)", "setting": "[2]", "value": "no longer inducible; also recorded: completely blocked; also recorded: No VT was inducible"}]}]}
